Source: the supplement of paper PMC13380429

Columns and labels:
Conditions in all cases: 72 h
Vero E6 [1] = assay: drug sensitivity score (DSS) for viability; higher = more toxic; extreme values may be limits of the assay
Calu-3 [2] = assay: as above
HepG2 [3] = assay: as above
Caco-2 [4] = assay: as above
U2OS [5] = assay: as above
Vero E6 [6] = assay: relative viability EC50 (midpoint between 100% and the lowest measured viability); higher = less toxic
Calu-3 [7] = assay: as above
U2OS [8] = assay: as above
Vero E6 [9] = assay: cell viability relative to DMSO; higher = less toxic
Calu-3 [10] = assay: as above
HepG2 [11] = assay: as above
Caco-2 [12] = assay: as above
U2OS [13] = assay: as above
HepG2 [14] = assay: relative viability EC50 (midpoint between 100% and the lowest measured viability); higher = less toxic

SMILES | drug sensitivity score (Vero E6 [1]) | drug sensitivity score (Calu-3 [2]) | drug sensitivity score (HepG2 [3]) | drug sensitivity score (Caco-2 [4]) | drug sensitivity score (U2OS [5]) | relative viability EC50 (Vero E6 [6]) [µM] | relative viability EC50 (Calu-3 [7]) [µM] | relative viability EC50 (U2OS [8]) [µM] | cell viability (Vero E6 [9]; 1 nM) [%] | cell viability (Vero E6 [9]; 10 nM) [%] | cell viability (Vero E6 [9]; 100 nM) [%] | cell viability (Vero E6 [9]; 1000 nM) [%] | cell viability (Vero E6 [9]; 10000 nM) [%] | cell viability (Calu-3 [10]; 1 nM) [%] | cell viability (Calu-3 [10]; 10 nM) [%] | cell viability (Calu-3 [10]; 100 nM) [%] | cell viability (Calu-3 [10]; 1000 nM) [%] | cell viability (Calu-3 [10]; 10000 nM) [%] | cell viability (HepG2 [11]; 1 nM) [%] | cell viability (HepG2 [11]; 10 nM) [%] | cell viability (HepG2 [11]; 100 nM) [%] | cell viability (HepG2 [11]; 1000 nM) [%] | cell viability (HepG2 [11]; 10000 nM) [%] | cell viability (Caco-2 [12]; 1 nM) [%] | cell viability (Caco-2 [12]; 10 nM) [%] | cell viability (Caco-2 [12]; 100 nM) [%] | cell viability (Caco-2 [12]; 1000 nM) [%] | cell viability (Caco-2 [12]; 10000 nM) [%] | cell viability (U2OS [13]; 1 nM) [%] | cell viability (U2OS [13]; 10 nM) [%] | cell viability (U2OS [13]; 100 nM) [%] | cell viability (U2OS [13]; 1000 nM) [%] | cell viability (U2OS [13]; 10000 nM) [%] | relative viability EC50 (HepG2 [14]) [µM]
C=CC(C)(C)c1cc(/C=C/C(=O)c2ccc(O)cc2)c(OC)cc1O [licochalcone-A] | 0 | 0 | 1.5 | 2.8 | 0.1 | > 10 | > 10 | > 10 | 103 | 101 | 90.2 | 98 | 102 | 96.1 | 100 | 106 | 98.1 | 91.7 | 99.9 | 100 | 74.4 | 99.2 | 78.4 | 92.4 | 83 | 105 | 88 | 70.8 | 95.7 | 96.5 | 100 | 95.8 | 88.7 | –
COc1ccc(C(C)(C)C)cc1CN[C@H]1C2CCN(CC2)[C@H]1C(c1ccccc1)c1ccccc1 [maropitant] | 1.7 | 5.4 | 4.9 | 1.3 | 2.5 | – | 3.24 | – | 100 | 106 | 100 | 101 | 62.6 | 108 | 104 | 110 | 101 | 1.7 | 107 | 104 | 98.9 | 100 | 11.6 | 103 | 96.4 | 101 | 103 | 67.4 | 99.5 | 98.9 | 101 | 93.9 | 67.3 | 3.17
C[C@H](N)[C@H](O)c1cccc(O)c1 [metaraminol] | 0 | 0 | 0 | – | – | > 10 | > 10 | – | 105 | 101 | 108 | 97.5 | 102 | 90.4 | 96.8 | 98.7 | 99.9 | 91.9 | 97.9 | 102 | 100 | 97.2 | 103 | – | – | – | – | – | – | – | – | – | – | > 10
Cc1cccc(C)c1OCC(C)N (centres undefined) [mexiletine] | 0 | 0 | 0.1 | – | 0 | – | – | – | – | – | – | – | – | – | – | – | – | – | – | – | – | – | – | – | – | – | – | – | – | – | – | – | – | –
CCCCCCCCOc1ccccc1C(=O)Nc1ccc(C(=O)OCC[N+](C)(CC)CC)cc1 [otilonium] | 0 | 0 | 0.7 | 1.4 | 0 | > 10 | > 10 | > 10 | 103 | 97.2 | 106 | 97.8 | 94.1 | 97 | 104 | 91.1 | 96.7 | 89.3 | 109 | 96.2 | 108 | 96 | 83.8 | 89.1 | 99.4 | 97 | 97.5 | 74.7 | 101 | 106 | 98 | 101 | 90.7 | > 10
